Source: the NIST ThermoML archive (doi:10.1016/j.jct.2004.09.007)

Assay: molar heat capacity at constant pressure; xn = mol fraction of the nth substance listed
Settings: 101.3 kPa, Liquid, Large sample (1 g) DSC

CC(O)CCO (stereo not drawn) [1,3-butanediol] + CCCCO
molar heat capacity at constant pressure [J/K/mol]
Settings | x1 = 0.189 | x1 = 0.2983 | x1 = 0.436 | x1 = 0.5902 | x1 = 0.7056 | x1 = 0.8961 | x1 = 1
285.15 K | 178.21 | 183.56 | 189.77 | 196.24 | 200.97 | 210.06 | 211.74
285.65 K | 178.59 | 183.85 | 190.08 | 196.61 | 201.4 | 208.67 | 212.17
288.15 K | 179.92 | 185.21 | 191.37 | 198 | 202.79 | 210.1 | 213.57
290.65 K | 181.38 | 186.6 | 192.85 | 199.46 | 204.22 | 211.53 | 215.06
293.15 K | 182.92 | 188.08 | 194.38 | 200.87 | 205.67 | 213 | 216.58
295.65 K | 184.43 | 189.64 | 195.81 | 202.4 | 207.15 | 214.51 | 218.04
298.15 K | 186.01 | 191.11 | 197.31 | 203.91 | 208.58 | 216.08 | 219.62
300.65 K | 187.6 | 192.65 | 198.88 | 205.47 | 210.16 | 217.6 | 221.14
303.15 K | 189.31 | 194.35 | 200.51 | 207.08 | 211.81 | 219.24 | 222.8
305.65 K | 191.04 | 195.99 | 202.12 | 208.6 | 213.36 | 220.73 | 224.37
308.15 K | 192.78 | 197.71 | 203.81 | 210.26 | 215.04 | 222.49 | 226.07
310.65 K | 194.41 | 199.34 | 205.42 | 211.86 | 216.58 | 224.04 | 227.65
313.15 K | 196.3 | 201.02 | 207.06 | 213.43 | 218.21 | 225.64 | 229.24
315.65 K | 198.07 | 202.81 | 208.71 | 215.01 | 219.75 | 227.18 | 230.82
318.15 K | 199.98 | 204.63 | 210.53 | 216.77 | 221.57 | 228.97 | 232.6
320.65 K | 201.89 | 206.47 | 212.31 | 218.48 | 223.19 | 230.61 | 234.14
323.15 K | 203.75 | 208.15 | 214.02 | 220.21 | 224.86 | 232.26 | 235.83
325.65 K | 205.57 | 210.02 | 215.77 | 221.9 | 226.54 | 233.95 | 237.52
328.15 K | 207.42 | 211.77 | 217.34 | 223.44 | 228.18 | 235.52 | 239.08
330.65 K | 209.47 | 213.61 | 219.1 | 225.17 | 229.9 | 237.35 | 240.59
333.15 K | 211.36 | 215.41 | 220.86 | 226.84 | 231.42 | 238.77 | 242.28
335.65 K | 213.23 | 217.15 | 222.54 | 228.47 | 232.95 | 240.35 | 243.86
338.15 K | 215.01 | 218.85 | 224.14 | 229.97 | 234.44 | 241.71 | 245.11
340.65 K | 217.62 | 220.95 | 226.11 | 231.92 | 236.35 | 243.67 | 247.19
343.15 K | 219.25 | 222.78 | 227.81 | 233.46 | 237.95 | 245.19 | 248.62
345.65 K | 221.09 | 224.51 | 229.58 | 235.21 | 239.85 | 246.7 | 250.13
348.15 K | 223.12 | 226.46 | 231.31 | 236.83 | 241.5 | 248.27 | 251.66
350.65 K | 224.98 | 228.29 | 232.97 | 238.43 | 242.73 | 249.77 | 253.24
353.15 K | 227.13 | 230.3 | 234.85 | 240.2 | 244.5 | 251.52 | 254.86
